Like-named read-outs stand apart in the source and are kept apart here.
How the values were obtained:
[1] = target: T1, TMEM16A (Homo sapiens, UniProt Q5XXA6); experiment: fluorescence-based eYFP-quench assay; type: cell-based; details: iodide based assay
T1 construct: expressed in transfected cells; host or cells: HEK293T-derived, doxycycline-inducible
T1 sequence (Q5XXA6 1-986): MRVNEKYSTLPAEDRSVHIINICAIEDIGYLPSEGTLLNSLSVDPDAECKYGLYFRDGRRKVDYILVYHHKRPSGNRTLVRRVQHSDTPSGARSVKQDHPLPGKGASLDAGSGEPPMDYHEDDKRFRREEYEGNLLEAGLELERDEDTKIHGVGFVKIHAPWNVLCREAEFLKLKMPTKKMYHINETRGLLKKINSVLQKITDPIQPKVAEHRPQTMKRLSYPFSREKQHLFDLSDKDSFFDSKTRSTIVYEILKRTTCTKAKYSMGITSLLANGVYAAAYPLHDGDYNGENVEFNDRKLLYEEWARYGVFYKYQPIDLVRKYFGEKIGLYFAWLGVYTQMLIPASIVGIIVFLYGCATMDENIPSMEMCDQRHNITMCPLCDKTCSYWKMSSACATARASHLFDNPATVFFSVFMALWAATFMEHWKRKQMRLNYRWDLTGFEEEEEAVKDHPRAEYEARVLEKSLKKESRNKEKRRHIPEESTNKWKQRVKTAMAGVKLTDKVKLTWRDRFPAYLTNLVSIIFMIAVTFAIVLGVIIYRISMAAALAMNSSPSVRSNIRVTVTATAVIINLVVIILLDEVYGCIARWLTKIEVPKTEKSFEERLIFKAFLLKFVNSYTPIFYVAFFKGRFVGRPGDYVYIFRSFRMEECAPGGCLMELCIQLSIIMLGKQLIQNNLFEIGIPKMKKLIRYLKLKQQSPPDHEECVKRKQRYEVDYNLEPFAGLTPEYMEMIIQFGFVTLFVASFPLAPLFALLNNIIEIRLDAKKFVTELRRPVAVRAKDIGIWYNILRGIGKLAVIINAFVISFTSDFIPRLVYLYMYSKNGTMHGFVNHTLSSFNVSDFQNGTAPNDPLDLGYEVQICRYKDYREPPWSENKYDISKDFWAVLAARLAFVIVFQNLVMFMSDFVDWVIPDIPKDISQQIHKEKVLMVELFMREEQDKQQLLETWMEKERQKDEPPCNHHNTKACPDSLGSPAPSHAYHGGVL
Text: This was possibly due to the eYFP assay being iodide based, since it has been reported that the anion passing through the pore has an effect on the open state of the channel.[12] It is also impossible to control the intracellular calcium level in this assay, which could explain the discrepancy in potency.[37] […] There is clearly a need for an automated electrophysiology assay for TMEM16A, whether looking at activators or inhibitors. TMEM16A has proven to be a difficult channel for electrophysiology, owing to its fast rundown, small currents, and the fact that it is a ligand-gated channel. In addition, fluoride, typically used in automated patch-clamp assays to improve seal quality, is known to decrease calcium salt solubility. Therefore, a fluoride-free internal solution is preferable when trying to control for a precise internal calcium concentration.

[2] = target: T2, human ANO1 channel (isoform acd) (Homo sapiens, UniProt Q5XXA6); experiment: QPatch-48 automated whole-cell electrophysiology, cumulative five-concentration single-addition protocol; type: cell-based
T2 construct: host or cells: HEK293T
T2 sequence (Q5XXA6 1-986): T1 sequence (Q5XXA6 1-986)
Experimental: HEK293T cells stably expressing the human ANO1 channel (isoform acd) were obtained from Scottish Biomedical. Cells were cultured in Sigma Minimum Essential Media containing 10% heat-inactivated fetal bovine serum, 1% penicillin/streptomycin, 1% glutamine, and […] geneticin. Cells were maintained in a 37°C, 5% CO2 environment. Cells were passaged every 3 days after they had reached ∼70% confluency and were not allowed to reach a density greater than 1–2 × 10^5 cells/cm^2 during routine culture. When subculturing, cells were rinsed once with room temperature 1 × phosphate-buffered saline (PBS; Ca^2+/Mg^2+ free), lifted with TrypLE Express, resuspended in prewarmed growth media, and counted using a hemocytometer. Cells were then plated in T150 flasks at a density of 2.9 × 10^4 cells/cm^2 to be either used in the assay or subcultured 72 h later.
On the day of the experiment, cells plated at a density of 2.9 × 10^4 cells/cm^2 72 h prior should be ∼70%–80% confluent. After cells were rinsed with prewarmed 1 × PBS (Ca^2+/Mg^2+ free), 3 mL of room temperature Detachin solution (Genlantis) was added to the flask and tilted gently two to three times to cover all the cells. Approximately 2 mL of Detachin was aspirated from the flask, leaving 1 mL on the cells, and then placed in the 37°C incubator for 5 min. Once cells had rounded up, the cells were dislodged by tapping the flask gently. The cells were then resuspended in 5 mL of warm serum-free media (EX-CELL ACF CHO Medium; Sigma; supplemented with 4 mM L-glutamine and 10 mM HEPES). A glass Pasteur pipette with a rubber bulb was then used to gently dissociate the cells from one another. Detachin will often leave cells as doublets or clumps, conditions that will disrupt seal formation on the QPatch. The cells were triturated ∼30 times and then, still using the Pasteur pipette, transferred into the QPatch Cell Hotel. This ensures that cells detach from one another leaving a suspension of single cells. A QStirrer was added to the Cell Hotel and the cell suspension was immediately placed on the QPatch device. Cells were utilized within 15 min.
Compounds were reconstituted in dimethyl sulfoxide (DMSO; Sigma) as 10 mM stock solutions. An automated dilution machine set up the microtiter plate (MTP ) by making 1:5 dilutions from a starting concentration of 30 μM. The concentration of DMSO was equal for all concentrations tested. Each MTP contained one row of a negative control (DMSO) and a positive control (benzbromarone). A total of eight compounds were run at a time. All compounds tested were produced in-house.
Whole-cell patch-clamp experiments were performed on a QPatch-48-automated electrophysiology platform (Sophion Biosciences) using the 48-channel, single-hole QPlate (resistance 2.0 ± 0.4 MΩ). The external buffer (in mM) was 140 NaCl, 4 KCl, 2 CaCl2, 1 MgCl2, 10 HEPES, 10 glucose, pH 7.4 (osmolarity = 300), and the internal buffer (in mM) was 110 CsCl, 20 TEA-Cl, 5.374 CaCl2, 1.75 MgCl2, 10 EGTA, 10 HEPES, 4 Na2ATP, pH 7.2 (osmolarity = 310). Cell positioning was set to a 5-s wait time with a positioning pressure of −60 mbar and a positioning time-out of 60 s. Resistance was set to increase 750% to ensure the success of positioning. To obtain a seal, pressure was increased to −70 mbar with an allowed pressure of −130 to −20 mbar and a holding pressure of −20 mbar. The holding potential was set to −70 mV and a 240-s time-out was set. The minimum seal resistance was set to 0.02 GΩ. To go whole cell, five 1-s suction pulses were applied starting at −180 mbar and increasing with −40 mbar increments with a pulse period of 10 s. Suction ramp and voltage zap protocols were kept standard, according to the default HEK cell settings. […] The suction ramp order of use was set to 2 with a ramp amplitude of −450 mbar and a ramp slope of 100 ms/mbar.
Once established in whole-cell configuration, cells are clamped to a holding potential (Vhold) of 0 mV.

[3] = set-up: method as in PMID 28493701; details: cited from earlier work
[4] = target: T1, TMEM16A; set-up: method as in PMID 24642630; details: read-out: reported IC50; cited from earlier work
[5] = independent experiment 1, block at +100 mV, 250 nM internal free-calcium, read-out: IC50s for independent experiments 1
[6] = independent experiment 2, read-out: IC50s for independent experiments 2
[7] = independent experiment 3, read-out: IC50s for independent experiments 3
[8] = independent experiment 4, read-out: IC50s for independent experiments 4

Row | SMILES | IC50 [2, 5] | IC50 [2, 6] | IC50 [2, 7] | IC50 [2, 8] | also measured
1 | N#Cc1c(C(F)(F)F)cc(O)n2c1nc1ccccc12 [1PBC] | 1.18 µM | 0.85 µM | 1.1 µM | 1.57 µM | inhibition in eYFP-quench assay [1]: 40%; potency relative to that reported ([2]; versus reported value, ref 36 (mouse TMEM16A)): ~10 times
2 | COc1ccccc1/C=N/NC(=O)COc1ccc(Cl)cc1C [Ani9] | – | – | – | – | metabolic stability [3]: metabolically unstable
3 | O=C(O)c1cccnc1Nc1cccc(C(F)(F)F)c1 [Niflumic acid] | 5.29 µM | 4.62 µM | 8.45 µM | 11.1 µM | IC50 ([2]; full plate format (with rundown), n = 3, read-out: IC50, full plate): 3.89 ± 0.11 µM; IC50 ([2]; independent experiment 5, read-out: IC50s for independent experiments 5): 7.71 µM; effect on deactivation rate ([2]; tail current deactivation): slower deactivation rate; IC50 [4]: 12 µM
4 | CCc1c(C)nc(SCC(=O)Nc2nc(-c3ccc(OC)cc3)cs2)[nH]c1=O [T16Ainh-A01] | – | – | – | – | block of current ([2]; maximum block seen): ≤ 40%
